Tests used:
[1] = Cytotoxicity study (CellTiter 96 AQueous One) in Vero cells; assay type: cell-based; conditions: African green monkey, Vero cells, 48 h, read-out: Cells viability (%, means ± SEM) Vero
Method: (§1) The cytotoxicity of active compounds was tested on LLC-MK2, Vero, THP-1, HEK-293, HepG2 and C6/36 cell lines. Each cell line was seeded at 1 × 10^4 cells per well in 96-well plates and incubated overnight. The compounds were added at the indicated concentrations and the cells were incubated for 48 h, unless indicated otherwise. Cell viability was analyzed using CellTiter 96® AQueous One Solution Cell Proliferation Assay kit (Promega, Wisconsin-Madison, USA) according to manufacturer’s protocol. The plate was read at the A 450 in a VICTORTM × 3 microplate reader (PerkinElmer, Massachusetts, USA). Percent cell viability in compound-treated wells was calculated using reference DMSO-treated cells as a 100% cell viability control. The CC50 values of LLC/MK2 cells were calculated using nonlinear regression analysis. Results were reported as means and standard error of the means (SEM) of CC50 values of three independent experiments in which each drug concentration was tested in triplicate.

[2] = tested on: Vero cells; experiment: as above; assay type: cell-based; conditions: 10 and 25 µM; in words
Method: as §1

[3] = Cytotoxicity study (CellTiter 96 AQueous One) in HepG2 cells; assay type: cell-based; conditions: human, HepG2 cells, read-out: Cells viability (%, means ± SEM) HepG2
Method: as §1

[4] = Cytotoxicity study (CellTiter 96 AQueous One) in HEK-293 cells; assay type: cell-based; conditions: human, HEK-293 cells, read-out: Cells viability (%, means ± SEM) HEK-293
Method: as §1

[5] = tested on: DENV1 (16007); experiment: Antiviral efficacy (EC50) in virus infected LLC/MK2 cells, plaque assay; assay type: cell-based, Dengue virus
Method: (§3) Compound at various concentrations were added to virus infected LLC/MK2 cells and viral titers were accessed by plaque titration of supernatants as previously described.
(§4) LLC/MK2 cells were seeded at 5 × 10^4 cells into each well of 24-well plate and incubated overnight at 37 °C under 5% CO2. Cells were infected with DENV2 at the multiplicity of infection (M.O.I.) of 0.1, unless indicated otherwise, for 1 h with gentle rocking every 15 min. Cells were washed with phosphate buffer saline (PBS) and incubated with 1 ml of MEM medium supplemented with 1% FBS as previously described. The compounds were prepared in dimethylsulfoxide (DMSO) at the indicated concentrations before addition to viral infected cells. Supernatants were collected after 5 day incubation and analyzed by plaque titration[9].
(§5) Compounds were prepared in DMSO at 8–12 different concentrations and added to virus infected cells as previously described. Supernatants were collected and the EC50 values were calculated from nonlinear regression analysis.

[6] = tested on: DENV3 (16562); experiment: as above; assay type: cell-based, Dengue virus
Method: as §3, §4, §5

[7] = tested on: DENV4 (c0036); experiment: as above; assay type: cell-based, Dengue virus
Method: as §3, §4, §5

[8] = Cytotoxicity study, summary statements over human-derived cell lines; assay type: cell-based; conditions: HepG2 and HEK-293 cells, THP-1, HepG2, HEK-293, 10 and 25 µM, Table 2
Method: as §1

[9] = tested on: DENV2; experiment: Attachment inhibition study, DENV2 with LLC/MK2 cells; assay type: cell-based, Dengue virus; conditions: 10 µM
Method: (§2) We further explored whether the compound would block the viral infectivity by neutralization. We set up the attachment inhibition assay by incubating DENV2 with LLC/MK2 cells at 4 °C for 1 h and FV13 was added before adsorption (pre-attachment), simultaneous with adsorption (co-attachment), and after adsorption (post-attachment) (Fig. 5A). DMSO was used as a mock treatment and added in parallel to FV13 to the experiment. Cells were incubated until cytopathic effects appeared under microscope (Fig. 5B). Supernatants and cells were then analyzed by plaque titration (Fig. 5C) and RT-qPCR (Fig. 5D), respectively. […] Therefore, the major targets of FV13 inhibition appear to function after attachment, possibly at the fusion or translation steps. […] (Supplementary 1). Therefore, fusion was unlikely the major target of FV13. We concluded that one of the major targets of FV13 functions early after infection and attachment and fusion are not critically affected. Flavivirus translation initiates within 1 to 5 hpi[26].
After supernatant collection, the remaining cells in experimental plates were extracted for viral RNAs using TRIzol reagent (Invitrogen, California, USA) according to the manufacturer’s protocol. The samples were loaded into the Direct-zol™ RNA MiniPrep (Zymo research, California, USA) and quantified by Nanodrop spectrophotometry (Eppendorf, New York, USA). The RT-qPCR was performed with a Step-OnePlus Real-Time PCR System (Applied Biosystems, California, USA.) with 1 × Power SYBRGreen PCR Master Mix, 400 nM each of capsid primers[40] or 250 nM of NS1 primers[41] and 0.1 µg of total RNA. The reactions were then cycled at 48 °C 30 min and 95 °C 10 min, followed by 45 cycles of 95 °C for 20 s (denaturation), 55 °C for 30 s (annealing), 72 °C for 30 s (extension). Each sample was analyzed in triplicated and results were confirmed by two independent experiments.
The attachment assay was adapted from Lani et al., 2016 and Jin et al., 2015 [42],[43]. Briefly, LLC/MK2 cells were seeded in 24-well plates and incubated as previously described. […]

[10] = tested on: DENV2 infected C6/36 cells; experiment: Fusion inhibition study in DENV2 infected C6/36 cells; assay type: cell-based, Dengue virus; conditions: 10 and 25 µM; M.O.I. of 0.02; in words
Method: as §2
The assay protocol was adapted from Ichiyama et al., 2013 and Poh et al., 20091,2. C6/36 cells were seeded at 2x10^5 cells per well in 24-well plate and incubated overnight. Cells were infected with DENV2 (M.O.I. of 0.02) at 28 °C for 1 h with gentle rocking every 15 min. […] The cells were closely monitored under microscope. […]

O=c1cc(-c2ccccc2)oc2c(Br)c(O)c(Br)c(O)c12 [FV13, 6,8-dibromo-5,7-dihydroxyflavone]
viability at 48 h, 10 µM ([1]; 10 μM): 53.1 ± 4.9%
viability at 48 h, 25 µM ([1]; 25 μM): 42.6 ± 0.65%
sensitivity of Vero cells to the compound [2]: very sensitive
viability at 48 h, 10 µM ([3]; 10 μM): 85.8 ± 4.7%
viability at 48 h, 25 µM ([3]; 25 μM): 84.6 ± 2.79%
viability at 48 h, 10 µM ([4]; 10 μM): 98.1 ± 0.72%
viability at 48 h, 25 µM ([4]; 25 μM): 89.4 ± 5.6%
S.I. Selectivity index (CC50/EC50) ([5]; DENV1 (16007), CC50 in LLC/MK2): 19.42
EC50 ([5]; Dengue virus, DENV1, LLC-MK2): 2300 ± 1040 nM
S.I. Selectivity index (CC50/EC50) ([6]; DENV3 (16562), CC50 in LLC/MK2): 19.22
EC50 ([6]; Dengue virus, DENV3, LLC-MK2): 2320 ± 1460 nM
S.I. Selectivity index (CC50/EC50) ([7]; DENV4 (c0036), CC50 in LLC/MK2): 25.12
EC50 ([7]; Dengue virus, DENV4, LLC-MK2): 1780 ± 720 nM
viability at 48 h [8]: > 80%
viral RNA reduction ([9]; post-attachment, intracellular RNA, RT-qPCR): 64.07 ± 3.37%
plaque titer reduction ([9]; post-attachment, supernatants, 2 days): 40.59 ± 2.83%
interference with pre- or co-attachment steps ([9]; pre-attachment and co-attachment, in words): did not interfere with either pre- or co-attachment steps
fusion inhibition (number of fused cells or syncytial phenomenon) [10]: no difference in the number of fused cells or syncytial phenomenon

Source: PMC5651866, “Halogenated Chrysins Inhibit Dengue and Zika Virus Infectivity” (Scientific Reports, 2017)
